Data reported in ChEMBL document CHEMBL1129081, “New neplanocin analogues. 7. Synthesis and antiviral activity of 2-halo derivatives of neplanocin A” (J Med Chem, 1996).
≈ marks a conversion by molar mass, not a printed value.

What was measured:
Vero [1] = test: Cytotoxic concentration required to reduce the number of Vero cells by 50%; format: cell-based; conditions: Chlorocebus sabaeus
Mumps virus = test: Inhibitory concentration required to reduce virus Plaque formation (mumps); format: functional, organism-based; conditions: Mumps orthorubulavirus
Measles morbillivirus = test: Inhibitory concentration required to reduce virus Plaque formation (measles); format: functional, organism-based
[2] = tested on: Vesicular stomatitis virus; test: Inhibitory concentration required to reduce virus -induced cytopathicity (VSV); format: functional, organism-based
Vero [3] = test: Antiviral and cytostatic effects against Sindbis virus expressed in Vero cells; format: functional, cell-based; conditions: Chlorocebus sabaeus
Vero [4] = test: Antiviral and cytostatic effects against forest virus expressed in Vero cells; format: functional, cell-based; conditions: Chlorocebus sabaeus
HeLa [5] = test: Antiviral and cytostatic effects againstTK-VZV virus expressed in Hela cells; format: functional, cell-based; conditions: Homo sapiens
HEL [6] = test: Antiviral and cytostatic effects againstTK-VZV virus expressed in HEL cells; format: functional, cell-based; conditions: Homo sapiens
E6SM [7] = test: Antiviral and cytostatic effects against VSV virus expressed in E6SM cells; format: functional, cell-based; conditions: Homo sapiens
E6SM [8] = test: Antiviral and cytostatic effects against TK HSV-1( B2006) virus expressed in E6SM cells; format: functional, cell-based; conditions: Homo sapiens
E6SM [9] = test: Antiviral and cytostatic effects against Hsv-2(G) virus expressed in E6SM cells; format: functional, cell-based; conditions: Homo sapiens
HEL [10] = test: Antiviral and cytostatic effects against TK-VZV virus expressed in HEL cells; format: functional, cell-based; conditions: Homo sapiens
E6SM [11] = test: Antiviral and cytostatic effects againstTK-VZV virus expressed in E6SM cells; format: functional, cell-based; conditions: Homo sapiens
CCRF-CEM = test: Antiviral and cytostatic effects againstTK-VZV virus expressed in CEM cells; format: functional, cell-based; conditions: Homo sapiens
Vero [12] = test: Antiviral and cytostatic effects against Junin virus expressed in Vero cells; format: functional, cell-based; conditions: Chlorocebus sabaeus
Vero [13] = test: Antiviral and cytostatic effects againstTK-VZV virus expressed in Vero cells; format: functional, cell-based; conditions: Chlorocebus sabaeus
E6SM [14] = test: Antiviral and cytostatic effects against CMV (Davis) virus expressed in […]; format: functional, cell-based; conditions: Homo sapiens
HeLa [15] = test: Antiviral and cytostatic effects against Coxsackie B4 virus expressed in HeLa cells; format: functional, cell-based; conditions: Homo sapiens
MOLT-4 = test: Antiviral and cytostatic effects againstTK-VZV virus expressed in MOLT-4 cells; format: functional, cell-based; conditions: Homo sapiens
HEL [16] = test: Antiviral and cytostatic effects against CMV (AD-169) virus expressed in HEL cells; format: functional, cell-based; conditions: Homo sapiens
Vero [17] = test: Antiviral and cytostatic effects against Reo-1 virus expressed in Vero cells; format: functional, cell-based; conditions: Chlorocebus sabaeus
Vero [18] = test: Antiviral and cytostatic effects against Parainfluenza-3 virus expressed in Vero cells; format: functional, cell-based; conditions: Chlorocebus sabaeus
Vero [19] = test: Antiviral and cytostatic effects against Tacaribe virus expressed in Vero cells; format: functional, cell-based; conditions: Chlorocebus sabaeus
E6SM [20] = test: Antiviral and cytostatic effects against VV virus expressed in E6SM cells; format: functional, cell-based; conditions: Homo sapiens
L1210 = test: Antiviral and cytostatic effects againstTK-VZV virus expressed in L1210 cells; format: functional, cell-based; conditions: Mus musculus
HEL [21] = test: Antiviral and cytostatic effects against VZV(Oka,YS) virus expressed in HEL cells; format: functional, cell-based; conditions: Homo sapiens
HeLa [22] = test: Antiviral and cytostatic effects against Polio-1 virus expressed in Hela cells; format: functional, cell-based; conditions: Homo sapiens
FM3A = test: Antiviral and cytostatic effects againstTK-VZV virus expressed in FM3A cells; format: functional, cell-based; conditions: Mus musculus
E6SM [23] = test: Antiviral and cytostatic effects against Hsv-1(KOS) virus expressed in E6SM cells; format: functional, cell-based; conditions: Homo sapiens
HeLa [24] = test: Antiviral and cytostatic effects against VSV virus expressed in Hela cells; format: functional, cell-based; conditions: Homo sapiens

C[C@H](O)C1=C[C@@H](n2cnc3c(N)ncnc32)[C@H](O)[C@@H]1O
IC50 (Vero [1]): > 200 µg/mL | IC50 (Mumps virus): 0.19 µg/mL (≈ 0.685 µM) | IC50 (Measles morbillivirus): 0.09 µg/mL (≈ 0.325 µM) | IC50 [2]: 0.25 µg/mL (≈ 0.902 µM)

C[C@H](O)C1=C[C@@H](n2cnc3c(N)nc(F)nc32)[C@H](O)[C@@H]1O
IC50 (Vero [1]): > 200 µg/mL | IC50 (Mumps virus): 7 µg/mL (≈ 23.7 µM) | IC50 (Measles morbillivirus): > 25 µg/mL | IC50 [2]: 16 µg/mL (≈ 54.2 µM)

Nc1nc(Cl)nc2c1ncn2[C@@H]1C=C(CO)[C@@H](O)[C@H]1O
IC50 (Vero [1]): > 200 µg/mL | IC50 (Mumps virus): > 25 µg/mL | IC50 (Measles morbillivirus): 29 µg/mL (≈ 97.4 µM) | IC50 [2]: 63 µg/mL (≈ 212 µM)

Nc1ncnc2c1ncn2[C@@H]1C=C[C@@H](O)[C@H]1O
IC50 (Vero [1]): > 200 µg/mL | IC50 (Mumps virus): 1.1 µg/mL (≈ 4.72 µM) | IC50 (Measles morbillivirus): 0.47 µg/mL (≈ 2.02 µM) | IC50 [2]: 1 µg/mL (≈ 4.29 µM)

Nc1nc(Cl)nc2c1ncn2[C@@H]1C=C[C@@H](O)[C@H]1O
IC50 (Vero [1]): > 200 µg/mL | IC50 (Mumps virus): > 25 µg/mL | IC50 (Measles morbillivirus): > 25 µg/mL

Nc1nc(F)nc2c1ncn2[C@@H]1C=C[C@@H](O)[C@H]1O
IC50 (Vero [1]): > 200 µg/mL | IC50 (Mumps virus): 21 µg/mL (≈ 83.6 µM) | IC50 (Measles morbillivirus): > 25 µg/mL

Nc1nc(F)nc2c1ncn2[C@@H]1C=C(CO)[C@@H](O)[C@H]1O
IC50 (Vero [3]): 1 µg/mL (≈ 3.56 µM) | IC50 (Vero [4]): > 100 µg/mL | IC50 (HeLa [5]): 100 µg/mL (≈ 356 µM) | IC50 (HEL [6]): 2 µg/mL (≈ 7.11 µM) | IC50 (E6SM [7]): 1 µg/mL (≈ 3.56 µM) | IC50 (E6SM [8]): > 40 µg/mL | IC50 (E6SM [9]): > 40 µg/mL | IC50 (HEL [10]): 7 µg/mL (≈ 24.9 µM) | IC50 (E6SM [11]): 40 µg/mL (≈ 142 µM) | IC50 (CCRF-CEM): 1.75 µg/mL (≈ 6.22 µM) | IC50 (Vero [12]): 0.6 µg/mL (≈ 2.13 µM) | IC50 (Vero [13]): 100 µg/mL (≈ 356 µM) | IC50 (E6SM [14]): > 5 µg/mL | IC50 (Vero [1]): > 200 µg/mL | IC50 (HeLa [15]): > 100 µg/mL | IC50 (MOLT-4): 0.5 µg/mL (≈ 1.78 µM) | IC50 (HEL [16]): 1.5 µg/mL (≈ 5.33 µM) | IC50 (Vero [17]): 0.7 µg/mL (≈ 2.49 µM) | IC50 (Vero [18]): 2 µg/mL (≈ 7.11 µM) | IC50 (Vero [19]): 0.7 µg/mL (≈ 2.49 µM) | IC50 (Mumps virus): 1.2 µg/mL (≈ 4.27 µM) | IC50 (E6SM [20]): 0.1 µg/mL (≈ 0.356 µM) | IC50 (L1210): 0.25 µg/mL (≈ 0.889 µM) | IC50 (HEL [21]): 10 µg/mL (≈ 35.6 µM) | IC50 (HeLa [22]): > 40 µg/mL | IC50 (Measles morbillivirus): 0.03 µg/mL (≈ 0.107 µM) | IC50 (FM3A): 0.19 µg/mL (≈ 0.676 µM) | IC50 (E6SM [23]): > 40 µg/mL | IC50 (HeLa [24]): 0.4 µg/mL (≈ 1.42 µM) | IC50 [2]: 0.25 µg/mL (≈ 0.889 µM)

Nc1ncnc2c1ncn2[C@@H]1C=C(CO)[C@@H](O)[C@H]1O [NEOPLANOCIN A]
IC50 (Vero [3]): 7 µg/mL (≈ 26.6 µM) | IC50 (Vero [4]): > 40 µg/mL | IC50 (HeLa [5]): 40 µg/mL (≈ 152 µM) | IC50 (HEL [6]): > 20 µg/mL | IC50 (E6SM [7]): 7 µg/mL (≈ 26.6 µM) | IC50 (E6SM [8]): 20 µg/mL (≈ 76 µM) | IC50 (E6SM [9]): > 40 µg/mL | IC50 (HEL [10]): 9 µg/mL (≈ 34.2 µM) | IC50 (E6SM [11]): 70 µg/mL (≈ 266 µM) | IC50 (CCRF-CEM): 1.12 µg/mL (≈ 4.25 µM) | IC50 (Vero [12]): 0.5 µg/mL (≈ 1.9 µM) | IC50 (Vero [13]): 40 µg/mL (≈ 152 µM) | IC50 (E6SM [14]): 0.4 µg/mL (≈ 1.52 µM) | IC50 (Vero [1]): 155 µg/mL (≈ 589 µM) | IC50 (HeLa [15]): > 40 µg/mL | IC50 (MOLT-4): 2.34 µg/mL (≈ 8.89 µM) | IC50 (Vero [17]): 0.7 µg/mL (≈ 2.66 µM) | IC50 (Vero [18]): 2 µg/mL (≈ 7.6 µM) | IC50 (Vero [19]): 1.5 µg/mL (≈ 5.7 µM) | IC50 (Mumps virus): 0.11 µg/mL (≈ 0.418 µM) | IC50 (E6SM [20]): 0.7 µg/mL (≈ 2.66 µM) | IC50 (L1210): 0.027 µg/mL (≈ 0.103 µM) | IC50 (HEL [21]): 10 µg/mL (≈ 38 µM) | IC50 (HeLa [22]): > 40 µg/mL | IC50 (Measles morbillivirus): 0.1 µg/mL (≈ 0.38 µM) | IC50 (FM3A): 0.022 µg/mL (≈ 0.0836 µM) | IC50 (E6SM [23]): 70 µg/mL (≈ 266 µM) | IC50 (HeLa [24]): 2 µg/mL (≈ 7.6 µM) | IC50 [2]: 0.25 µg/mL (≈ 0.95 µM)
